Counter-ions that a name gives are not always drawn.
target: T1, Recombinant human cathepsin K (Homo sapiens, UniProt P43235); experiment: Inhibition of cathepsin K activity (Z-Phe-Arg-AMC fluorescence assay); type: biochemical; settings: 25 uM Z-Phe-Arg-AMC, pH 5.5, 1 hour at 37° C.
T1 construct: made in house
T1 sequence (P43235 115-329): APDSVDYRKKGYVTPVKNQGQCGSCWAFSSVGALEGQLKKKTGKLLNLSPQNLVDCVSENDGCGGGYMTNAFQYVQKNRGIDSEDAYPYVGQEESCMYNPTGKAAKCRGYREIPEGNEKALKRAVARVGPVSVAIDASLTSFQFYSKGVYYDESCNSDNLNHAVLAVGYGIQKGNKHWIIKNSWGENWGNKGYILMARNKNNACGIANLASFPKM
Procedure: Test 1: Inhibition of Cathepsin K Activity
Recombinant human cathepsin K was prepared in accordance with Biol, Pharm. Bull, 19(8), 1026-1031 (1996) and J. Biol. Chem. 271, 2126-2132 (1996). Stock solutions of 2.5 mM Z-Phe-Arg-AMC (BACHEM, 1-1160) and all inhibitors were prepared in dimethyl sulfoxide. In vitro assays for cathepsin K were conducted with 25 uM Z-Phe-Arg-AMC as a substrate at pH 5.5 in 100 mM Na acetate buffer containing 20 mM cysteine and 5 mM EDTA in the presence of 2% final concentration of DMSO. Reaction was initiated by the addition of enzyme to samples, which were then incubated for 1 hour at 37° C. The fluorescence was monitored at 460 nm (excitation wavelength 360 nm) using fluorescence plate reader.
The concentrations of the test compounds, which inhibit 50% of cathepsin K activity, are represented as IC50 in Table 1.

Row | SMILES | IC50
1 | O=C(NC1(C(=O)NC2CCN(c3ccccc3-n3cnnn3)CC2=O)CCCCC1)c1cc2ccccc2o1 (centres unmarked) [Example 58, 4-[N-[1-[N-(benzofuran-2-ylcarbonyl)amino]cyclohexanecarbonyl]amino]-1-[2-(tetrazol-1-yl)phenyl]piperidin-3-one] | 4.82 nM
2 | CS(=O)(=O)c1ccccc1N1CCC(NC(=O)C2(NC(=O)c3ccc4ccccc4n3)CCCCC2)C(=O)C1 (centres unmarked) [Example 136, 4-[N-[1-[N-(quinolin-2-ylcarbonyl)amino]cyclohexanecarbonyl]amino]-1-(2-methanesulfonylphenyl)piperidin-3-one] | 1.62 nM
3 | CC1(C)CN(c2ccccc2N2CCC(NC(=O)C3(NC(=O)c4cc5ccccc5o4)CCCCC3)C(=O)C2)C1=O (centres unmarked) [Example 43, 4-[N-[1-[N-(benzofuran-2-ylcarbonyl)amino]cyclohexanecarbonyl]amino]-1-[2-(3,3-dimethylazetidin-2-one-1-yl)phenyl]piperidin-3-one] | 4.97 nM
4 | Cc1c(C(=O)NC2(C(=O)NC3CCN(c4ccccc4S(C)(=O)=O)CC3=O)CCCCC2)oc2ccccc12 (centres unmarked) [Example 133, 4-[N-[1-[N-(3-methyl-benzofuran-2-ylcarbonyl)amino]cyclohexanecarbonyl]amino]-1-(2-methanesulfonylphenyl)piperidin-3-one] | 1.22 nM
5 | CS(=O)(=O)c1ccccc1N1CCC(NC(=O)C2(NC(=O)c3ccc(OCCN4CCCCC4)cc3)CCCCC2)C(=O)C1 (centres unmarked) [Example 160, 4-[N-[1-[N-(4-(2-piperidinethoxy)benzoyl)amino]cyclohexanecarbonyl]amino]-1-(2-methanesulfonylphenyl)piperidin-3-one hydrochloride] | 3.14 nM
6 | CS(=O)(=O)c1ccccc1N1CCC(NC(=O)C2(NC(=O)c3ccc(OCCN4CCOCC4)cc3)CCCCC2)C(=O)C1 (centres unmarked) [Example 158, 4-[N-[1-[N-(4-(2-morpholinethoxy)benzoyl)amino]cyclohexanecarbonyl]amino]-1-(2-methanesulfonylphenyl)piperidin-3-one hydrochloride] | 3.15 nM
7 | CS(=O)(=O)c1ccccc1N1CCC(NC(=O)C2(NC(=O)c3ccc(OCCN4CCOCC4)cc3)CCCCC2)C(=O)C1 (centres unmarked) [Example 155, 4-[N-[1-[N-(4-(2-morpholinethoxy)benzoyl)amino]cyclohexanecarbonyl]amino]-1-(2-methanesulfonylphenyl)piperidin-3-one] | 1.29 nM
8 | O=C(NC1(C(=O)NC2CCN(c3ccc(F)cc3N3CCCC3=O)CC2=O)CCCCC1)c1ccco1 (centres unmarked) [Example 95, 4-[N-[1-[N-(furan-2-ylcarbonyl)amino]cyclohexanecarbonyl]amino]-1-[4-fluoro-2-(pyrrolidin-2-one-1-yl)phenyl]piperidin-3-one] | 10.8 nM
9 | CS(=O)(=O)c1ccccc1N1CCC(NC(=O)C2(NC(=O)c3cc(N4CCCC4=O)co3)CCCCC2)C(=O)C1 (centres unmarked) [Example 168, 4-[N-[1-[N-(4-(2-oxopyrrolidine)furan-2-ylcarbonyl)amino]cyclohexanecarbonyl]amino]-1-(2-methanesulfonylphenyl)piperidin-3-one] | 15.8 nM
10 | Cc1c(C(=O)NC2(C(=O)NC3CCN(c4cc(F)ccc4C(F)(F)F)CC3=O)CCCCC2)oc2ccccc12 (centres unmarked) [Example 134, 4-[N-[1-[N-(3-methyl-benzofuran-2-ylcarbonyl)amino]cyclohexanecarbonyl]amino]-1-(5-fluoro-2-trifluoromethylphenyl)piperidin-3-one] | 6.09 nM
11 | CS(=O)(=O)c1ccccc1N1CCC(NC(=O)C2(NC(=O)c3ccc(N4CCCC4=O)cc3)CCCCC2)C(=O)C1 (centres unmarked) [Example 167, 4-[N-[1-[N-(4-(2-oxopyrrolidine)benzoyl)amino]cyclohexanecarbonyl]amino]-1-(2-methanesulfonylphenyl)piperidin-3-one] | 3.07 nM
12 | CC[S+]([O-])c1ccccc1N1CCC(NC(=O)C2(NC(=O)c3cc4ccccc4o3)CCCCC2)C(=O)C1 (centres unmarked) [Example 69] | 1.59 nM
13 | C[S+]([O-])c1ccccc1N1CCC(NC(=O)C2(NC(=O)c3cc4ccccc4o3)CCCCC2)C(=O)C1 (centres unmarked) [Example 68] | 3.12 nM
14 | CS(=O)(=O)c1ccccc1N1CCC(NC(=O)C2(NC(=O)c3cc4cc(OCCN5CCCC5)ccc4o3)CCCCC2)C(=O)C1 (centres unmarked) [Example 165, 4-[N-[1-[N-(5-(2-pyrrolidinethoxy)benzofuran-2-ylcarbonyl)amino]cyclohexanecarbonyl]amino]-1-(2-methanesulfonylphenyl)piperidin-3-one hydrochloride] | 1.63 nM
15 | CSc1ccccc1N1CCC(NC(=O)C2(NC(=O)c3cc4ccccc4o3)CCCCC2)C(=O)C1 (centres unmarked) [Example 36, 4-[N-[1-[N-(benzofuran-2-ylcarbonyl)amino]cyclohexanecarbonyl]amino]-1-(2-methylthiophenyl)piperidin-3-one] | 2.13 nM
16 | CC(C)S(=O)(=O)c1ccccc1N1CCC(NC(=O)C2(NC(=O)c3ccc(Cl)s3)CCCCC2)C(=O)C1 (centres unmarked) [Example 116, 4-[N-[1-[N-(5-chloro-thiophen-2-ylcarbonyl)amino]cyclohexanecarbonyl]amino]-1-(2-isopropanesulfonylphenyl)piperidin-3-one] | 2.35 nM
17 | CSc1cc(F)ccc1N1CCC(NC(=O)C2(NC(=O)c3ccco3)CCCCC2)C(=O)C1 (centres unmarked) [Example 85, 4-[N-[1-[N-(furan-2-ylcarbonyl)amino]cyclohexanecarbonyl]amino]-1-(4-fluoro-2-thiomethoxyphenyl)piperidin-3-one] | 10.4 nM
18 | CS(=O)(=O)c1ccccc1N1CCC(NC(=O)C2(NC(=O)c3cc4cc(OCCN5CCOCC5)ccc4o3)CCCCC2)C(=O)C1 (centres unmarked) [Example 161, 4-[N-[1-[N-(5-(2-morpholinethoxy)benzofuran-2-ylcarbonyl)amino]cyclohexanecarbonyl]amino]-1-(2-methanesulfonylphenyl)piperidin-3-one] | 0.41 nM
19 | O=C(NC1(C(=O)NC2CCN(c3ccc(F)cc3-n3cccc3)CC2=O)CCCCC1)c1ccco1 (centres unmarked) [Example 99, 4-[N-[1-[N-(furan-2-ylcarbonyl)amino]cyclohexanecarbonyl]amino]-1-[4-fluoro-2-(pyrrol-1-yl)phenyl]piperidin-3-one] | 4.41 nM
20 | O=C(CCc1ccccc1)Nc1ccccc1N1CCC(NC(=O)C2(NC(=O)c3cc4ccccc4o3)CCCCC2)C(=O)C1 (centres unmarked) [Example 54, 4-[N-[1-[N-(benzofuran-2-ylcarbonyl)amino]cyclohexanecarbonyl]amino]-1-[2-[N-(3-phenylpropionyl)amino]phenyl]piperidin-3-one] | 6.09 nM
21 | CS(=O)(=O)c1ccccc1N1CCC(NC(=O)C2(NC(=O)c3cc4cc(OCCN5CCCC5)ccc4o3)CCCCC2)C(=O)C1 (centres unmarked) [Example 162, 4-[N-[1-[N-(5-(2-pyrrolidinethoxy)benzofuran-2-ylcarbonyl)amino]cyclohexanecarbonyl]amino]-1-(2-methanesulfonylphenyl)piperidin-3-one] | 0.45 nM
22 | Cc1ccc(C(=O)NC2(C(=O)NC3CCN(c4ccccc4S(C)(=O)=O)CC3=O)CCCCC2)o1 (centres unmarked) [Example 123, 4-[N-[1-[N-(5-methyl-furan-2-ylcarbonyl)amino]cyclohexanecarbonyl]amino]-1-(2-methanesulfonylphenyl)piperidin-3-one] | 4.97 nM
23 | CC(C)Oc1ccccc1N1CCC(NC(=O)C2(NC(=O)c3cc4ccccc4o3)CCCCC2)C(=O)C1 (centres unmarked) [Example 41, 4-[N-[1-[N-(benzofuran-2-ylcarbonyl)amino]cyclohexanecarbonyl]amino]-1-(2-isopropoxyphenyl)piperidin-3-one] | 7.73 nM
24 | N#Cc1ccc(N2CCC(NC(=O)C3(NC(=O)c4cc5ccccc5o4)CCCCC3)C(=O)C2)cc1 (centres unmarked) [Example 7, 4-[N-[1-[N-(benzofuran-2-ylcarbonyl)amino]cyclohexanecarbonyl]amino]-1-(4-cyanophenyl)piperidin-3-one] | 6.24 nM
25 | CC(=O)Nc1ccccc1N1CCC(NC(=O)C2(NC(=O)c3cc4ccccc4o3)CCCCC2)C(=O)C1 (centres unmarked) [Example 56, 4-[N-[1-[N-(benzofuran-2-ylcarbonyl)amino]cyclohexanecarbonyl]amino]-1-[2-[N-(acetyl)amino]phenyl]piperidin-3-one] | 1.62 nM
26 | CS(=O)(=O)c1ccccc1N1CCC(NC(=O)C2(NC(=O)c3cc4cc(OCCN5CCCCC5)ccc4o3)CCCCC2)C(=O)C1 (centres unmarked) [Example 163, 4-[N-[1-[N-(5-(2-piperidinethoxy)benzofuran-2-ylcarbonyl)amino]cyclohexanecarbonyl]amino]-1-(2-methanesulfonylphenyl)piperidin-3-one] | 0.55 nM
27 | O=Cc1c(Cl)cccc1N1CCC(NC(=O)C2(NC(=O)c3cc4ccccc4o3)CCCCC2)C(=O)C1 (centres unmarked) [Example 19, 4-[N-[1-[N-(benzofuran-2-ylcarbonyl)amino]cyclohexanecarbonyl]amino]-1-(3-chloro-2-formylphenyl)piperidin-3-one] | 4.41 nM
28 | Cc1cc(C(=O)NC2(C(=O)NC3CCN(c4ccccc4S(C)(=O)=O)CC3=O)CCCCC2)oc1C (centres unmarked) [Example 125, 4-[N-[1-[N-(4,5-dimethyl-furan-2-ylcarbonyl)amino]cyclohexanecarbonyl]amino]-1-(2-methanesulfonylphenyl)piperidin-3-one] | 6.8 nM
29 | CS(=O)(=O)c1ccccc1N1CCC(NC(=O)C2(NC(=O)c3cc4ccccc4s3)CCCCC2)C(=O)C1 (centres unmarked) [Example 128, 4-[N-[1-[N-(benzothiophen-2-ylcarbonyl)amino]cyclohexanecarbonyl]amino]-1-(2-methanesulfonylphenyl)piperidin-3-one] | 0.67 nM

From patent publication US7342027B2 (Yuhan Corporation, priority 2002, dated 2008)
